Values quoted from earlier work in paper PMC2990605 (British Journal of Cancer, 2010).

System: relapsed/refractory AML
Parameters: method as in Ossenkoppele et al, 2009; Reid et al, 2009
Conditions: tosedostat monotherapy, ref Ossenkoppele et al, 2009, Reid et al; cited from earlier work

CC(C)C[C@@H](C(=O)N[C@H](C(=O)OC1CCCC1)c1ccccc1)[C@H](O)C(=O)NO [tosedostat]
response rate: 31.4%
